From ChEMBL document CHEMBL5584355, “Harnessing Nitric Oxide-Donating Benzofuroxans for Targeted Inhibition of Carbonic Anhydrase IX in Cancer” (J Med Chem, 2024)

How the values were obtained:
[1] = molecular target: Carbonic anhydrase 1 (Homo sapiens, UniProt P00915); test: Inhibition of human recombinant CA1 by phenol red dye based stopped flow CO2 hydration assay
[2] = molecular target: Carbonic anhydrase 9 (Homo sapiens, UniProt Q16790); test: Inhibition of human recombinant CA9 by phenol red dye based stopped flow CO2 hydration assay
[3] = molecular target: Carbonic anhydrase 12 (Homo sapiens, UniProt O43570); test: Inhibition of human recombinant CA12 by phenol red dye based stopped flow CO2 hydration assay
Carbonic anhydrase 12, sequence (O43570 whole entry): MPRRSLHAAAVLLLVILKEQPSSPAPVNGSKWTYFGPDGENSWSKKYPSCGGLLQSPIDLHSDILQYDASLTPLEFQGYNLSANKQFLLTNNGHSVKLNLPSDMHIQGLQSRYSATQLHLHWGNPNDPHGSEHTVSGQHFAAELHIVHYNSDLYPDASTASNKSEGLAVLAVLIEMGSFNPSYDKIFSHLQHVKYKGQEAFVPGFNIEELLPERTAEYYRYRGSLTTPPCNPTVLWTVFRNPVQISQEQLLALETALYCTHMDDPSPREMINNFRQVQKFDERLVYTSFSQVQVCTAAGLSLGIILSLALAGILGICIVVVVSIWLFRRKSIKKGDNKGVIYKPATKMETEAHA

[4] = molecular target: Carbonic anhydrase 2 (Homo sapiens, UniProt P00918); test: Inhibition of human recombinant CA2 by phenol red dye based stopped flow CO2 hydration assay
[5] = Toxicity in female C57BL6/J mouse assessed as hematic pH at 10 mg/kg, ip administered daily for 2 weeks and measured 1 hr post last dose (reference value: 7.1); type: organism-based; settings: in vivo, 336 h
[6] = system: HEK293; test: Cytotoxicity against HEK293 cells assessed as inhibition of cell growth at 46 uM by celltiter-glo assay; type: toxicity, cell-based; settings: human, hek293, 46 µM
[7] = system: HEK293; test: Cytotoxicity against HEK293 cells assessed as inhibition of cell growth at 77 uM by celltiter-glo assay; type: toxicity, cell-based; settings: human, hek293, 77 µM

Carbonic anhydrase 1, sequence (P00915 whole entry): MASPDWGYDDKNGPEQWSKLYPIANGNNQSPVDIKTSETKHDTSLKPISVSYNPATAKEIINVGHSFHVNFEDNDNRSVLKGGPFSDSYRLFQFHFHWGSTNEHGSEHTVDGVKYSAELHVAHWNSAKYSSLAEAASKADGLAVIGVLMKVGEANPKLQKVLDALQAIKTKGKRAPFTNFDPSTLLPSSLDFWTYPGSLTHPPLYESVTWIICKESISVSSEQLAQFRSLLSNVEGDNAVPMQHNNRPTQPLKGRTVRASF

SMILES | Ki [1] [nM] | Ki [2] [nM] | further results
O=C(NCCOc1ccc2ccc(=O)oc2c1)c1ccc2c(c1)no[n+]2[O-] | > 10000 |  | 
N#CCCN(CCc1ccc(S(N)(=O)=O)cc1)C(=O)c1ccc2c(c1)no[n+]2[O-] |  | 20.3 | 
NS(=O)(=O)c1ccc(CCN(CCc2ccccc2)C(=O)c2ccc3c(c2)no[n+]3[O-])cc1 | 831 | 14.9 | 
NS(=O)(=O)c1ccc(CCNC(=O)c2ccc3c(c2)no[n+]3[O-])cc1 | 445 | 12.6 | Ki [3]: 26.1 nM; Ki [4]: 90.1 nM
O=C(NCCOc1ccc2oc(=O)ccc2c1)c1ccc2c(c1)no[n+]2[O-] |  | 23.6 | 
O=C(Oc1ccc2oc(=O)ccc2c1)c1ccc2c(c1)no[n+]2[O-] | > 10000 | 15.8 | 
NS(=O)(=O)c1ccc(CCN(Cc2ccccc2)C(=O)c2ccc3c(c2)no[n+]3[O-])cc1 | 618 | 10.4 | pH [5]: 6.9; Activity [6]: Non-Toxic
NS(=O)(=O)c1cc(C(=O)O)c(NCc2ccco2)cc1Cl [FUROSEMIDE] |  |  | pH [5]: 7.05
O=C(O)c1ccc2c(c1)no[n+]2[O-] | > 10000 | 2650 | Ki [3]: 995 nM; Ki [4]: 8730 nM
O=C(OCCOc1ccc2ccc(=O)oc2c1)c1ccc2c(c1)no[n+]2[O-] | > 10000 | 112 | 
NS(=O)(=O)c1ccc(NC(=O)c2ccc3c(c2)no[n+]3[O-])cc1 | 792 | 69.7 | 
NS(=O)(=O)c1ccc(CNC(=O)c2ccc3c(c2)no[n+]3[O-])cc1 | 83.1 | 37.9 | 
NS(=O)(=O)c1cccc(NC(=O)c2ccc3c(c2)no[n+]3[O-])c1 | 7660 | 41.5 | 
O=C(OCCCOc1ccc2ccc(=O)oc2c1)c1ccc2c(c1)no[n+]2[O-] | > 10000 |  | 
NS(=O)(=O)c1ccc(CCN(Cc2ccco2)C(=O)c2ccc3c(c2)no[n+]3[O-])cc1 | 602 | 23.1 | 
NS(=O)(=O)c1ccc(OC(=O)c2ccc3c(c2)no[n+]3[O-])cc1 | 736 | 38.7 | 
O=C(Oc1ccc2ccc(=O)oc2c1)c1ccc2c(c1)no[n+]2[O-] |  | 304 | 
O=C(OCCCOc1ccc2oc(=O)ccc2c1)c1ccc2c(c1)no[n+]2[O-] |  | 48.5 | 
NS(=O)(=O)c1ccc(O)c(NC(=O)c2ccc3c(c2)no[n+]3[O-])c1 | 8450 | 61.1 | 
NS(=O)(=O)c1ccc(CCN(Cc2ccc(F)cc2)C(=O)c2ccc3c(c2)no[n+]3[O-])cc1 |  |  | Activity [7]: Non-Toxic
